Several values for one entry are separate records, joined by “and”; a condition that tells them apart may be missing. Equal entries are not always repeated. Entries after “also recorded” stand apart in the source; their conditions may differ. Where two headings read alike, the source gives them in different places. Marks after values point to notes of the source that are not given here.
Legend:
5-HT1A receptor = target: T1, 5-HT1A receptor (Homo sapiens, UniProt P08908); assay: cAMP-Glo assay of 5-HT1A receptor modulation, +5-HT1A (CHO-K1/5-HT1A/Ga15) vs -5-HT1A (CHO-K1/Ga15) cells; type: cell-based; set-up: dose or concentration left out as unconfirmed; conditions: +5-HT1A vs -5-HT1A cell cultures stimulated with forskolin, increasing ligand concentrations
T1 construct: host or cells: CHO-K1 (co-expressing Ga15)
T1 sequence (P08908 1-422): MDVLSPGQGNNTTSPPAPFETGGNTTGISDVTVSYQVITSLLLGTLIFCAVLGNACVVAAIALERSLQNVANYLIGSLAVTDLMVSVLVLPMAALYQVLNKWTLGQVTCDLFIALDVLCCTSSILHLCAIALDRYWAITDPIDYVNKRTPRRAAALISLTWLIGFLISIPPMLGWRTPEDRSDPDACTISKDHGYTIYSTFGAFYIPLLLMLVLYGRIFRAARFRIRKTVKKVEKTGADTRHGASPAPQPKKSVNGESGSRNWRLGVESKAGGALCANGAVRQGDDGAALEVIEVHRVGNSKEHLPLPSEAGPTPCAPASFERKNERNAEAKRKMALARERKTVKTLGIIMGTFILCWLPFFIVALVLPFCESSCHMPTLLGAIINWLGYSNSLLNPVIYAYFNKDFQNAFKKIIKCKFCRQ

[1] = target: T2, neuronal 5-HT2A receptor (5-HT2AR) (Mus musculus, UniProt P35363); assay: Drug-induced Head Twitch Response (HTR) in mice; type: in vivo, C57BL/6-Elite mice; conditions: 1 mg/kg i.p., 15-to-30-minute window post-drug, relative to vehicle-treated control mice
T2 construct: HTR was measured in mice treated with a control and test compounds; tissue Charles River; host or cells: live C57BL/6-Elite mice (neuronal receptor)

[2] = Mouse pharmacokinetic (PK) study, parent compound and psilocin metabolite in plasma; type: in vivo, C57Bl/6 mice; conditions: for Detectability of administered compound in plasma, any animals at any dose: i.v. and oral doses
Text: (§1) Briefly, the procedure was as follows. […] 19, 2022.

GABAA = GABAA (Homo sapiens, UniProt P14867+P18507+P47870); type: cell-based; conditions: ion channel
5-HT2A receptor = 5-HT2A receptor (Homo sapiens, UniProt P28223); assay: [3H]ketanserin competition binding assay (SPA) at 5-HT2A; conditions: 1 nM [3H]ketanserin, FIGS. 3E, 3F
[3] = LC-MS measurement of dosing solution concentrations (nominal vs measured); type: physicochemical
Description: as §1
Pharmacokinetic (PK) evaluations were performed in the same manner as described in Example 1, except compound C(IV) was used in place of compound C(V). […] Thus, only psilocin PK analysis was performed. […] Table 46 summarizes these “measured” concentrations along with corresponding “nominal” concentrations for each dosing solution. Results for psilocin PK following C(IV) administration are found in Tables 47A-47B (0.293 mg/kg IV dose), Tables 48A-48B (0.275 mg/kg oral dose), Tables 49A-49B (0.789 mg/kg oral dose), Tables 50A-50B (2.52 mg/kg oral dose), Table 51 (comparative summary for IV data), Table 52 (comparative summary for oral data), Table 53A (psilocin exposure) and FIGS. 10H (i) and 10H (ii).

[4] = mouse, prodrug 1 mg/kg i.v., 8 h, individual animals
[5] = mouse, prodrug 1 mg/kg oral, 8 h, individual animals
[6] = mouse, prodrug 1 mg/kg oral, 24 h, individual animals
[7] = mouse, prodrug 3 mg/kg oral, 24 h, individual animals
[8] = mouse, prodrug 10 mg/kg oral, 24 h, individual animals

Chain of GABAA (P14867 28-456): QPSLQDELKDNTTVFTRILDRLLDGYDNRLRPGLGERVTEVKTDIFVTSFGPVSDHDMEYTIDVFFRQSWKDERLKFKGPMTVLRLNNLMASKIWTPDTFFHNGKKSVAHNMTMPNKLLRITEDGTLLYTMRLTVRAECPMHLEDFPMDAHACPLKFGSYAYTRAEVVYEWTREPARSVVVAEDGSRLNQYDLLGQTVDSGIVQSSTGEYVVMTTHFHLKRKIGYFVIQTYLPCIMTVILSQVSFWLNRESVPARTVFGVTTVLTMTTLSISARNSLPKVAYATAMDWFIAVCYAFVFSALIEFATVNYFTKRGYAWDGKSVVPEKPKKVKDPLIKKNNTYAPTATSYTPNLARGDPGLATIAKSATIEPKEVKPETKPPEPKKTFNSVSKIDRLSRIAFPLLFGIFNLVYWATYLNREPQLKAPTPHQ
Chain of GABAA (P47870 26-512): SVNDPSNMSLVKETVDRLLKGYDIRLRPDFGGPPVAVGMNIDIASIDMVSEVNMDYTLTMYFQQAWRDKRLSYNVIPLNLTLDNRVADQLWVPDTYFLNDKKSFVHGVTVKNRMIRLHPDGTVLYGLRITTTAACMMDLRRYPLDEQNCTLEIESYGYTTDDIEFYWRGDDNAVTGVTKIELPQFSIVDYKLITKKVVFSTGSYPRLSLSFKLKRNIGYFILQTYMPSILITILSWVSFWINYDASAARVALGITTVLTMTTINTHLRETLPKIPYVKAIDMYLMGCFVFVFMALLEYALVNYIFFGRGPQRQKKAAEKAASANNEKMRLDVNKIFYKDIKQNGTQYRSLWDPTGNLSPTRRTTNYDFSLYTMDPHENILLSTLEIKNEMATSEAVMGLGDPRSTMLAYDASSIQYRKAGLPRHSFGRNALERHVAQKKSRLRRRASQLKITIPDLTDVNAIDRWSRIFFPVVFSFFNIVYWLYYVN
Chain of GABAA (P18507 40-475): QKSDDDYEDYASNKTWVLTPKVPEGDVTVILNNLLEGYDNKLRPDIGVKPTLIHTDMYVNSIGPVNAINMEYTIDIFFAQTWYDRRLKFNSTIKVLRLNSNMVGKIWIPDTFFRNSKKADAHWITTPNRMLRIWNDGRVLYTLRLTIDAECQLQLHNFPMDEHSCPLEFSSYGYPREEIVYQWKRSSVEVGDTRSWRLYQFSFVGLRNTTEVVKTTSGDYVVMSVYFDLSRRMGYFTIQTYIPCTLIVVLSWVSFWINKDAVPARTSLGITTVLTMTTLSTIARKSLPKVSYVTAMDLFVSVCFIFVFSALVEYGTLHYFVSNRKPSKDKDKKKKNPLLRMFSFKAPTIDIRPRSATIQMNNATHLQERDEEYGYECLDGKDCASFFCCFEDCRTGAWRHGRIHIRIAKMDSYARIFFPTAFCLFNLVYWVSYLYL
T2 sequence (P35363 whole entry): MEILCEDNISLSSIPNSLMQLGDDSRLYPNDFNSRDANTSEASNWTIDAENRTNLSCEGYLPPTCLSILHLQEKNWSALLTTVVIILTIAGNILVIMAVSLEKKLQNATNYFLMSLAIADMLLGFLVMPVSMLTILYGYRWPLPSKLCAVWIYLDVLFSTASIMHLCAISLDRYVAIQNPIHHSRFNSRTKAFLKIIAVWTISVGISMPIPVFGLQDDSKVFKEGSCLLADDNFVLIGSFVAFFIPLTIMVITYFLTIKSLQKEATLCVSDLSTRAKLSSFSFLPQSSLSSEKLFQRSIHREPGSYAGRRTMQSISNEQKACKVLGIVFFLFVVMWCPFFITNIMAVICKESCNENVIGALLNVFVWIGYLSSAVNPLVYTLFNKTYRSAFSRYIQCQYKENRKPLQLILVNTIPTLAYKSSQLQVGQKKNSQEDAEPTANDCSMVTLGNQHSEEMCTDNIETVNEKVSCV
Chain of 5-HT2A receptor (P28223 whole entry): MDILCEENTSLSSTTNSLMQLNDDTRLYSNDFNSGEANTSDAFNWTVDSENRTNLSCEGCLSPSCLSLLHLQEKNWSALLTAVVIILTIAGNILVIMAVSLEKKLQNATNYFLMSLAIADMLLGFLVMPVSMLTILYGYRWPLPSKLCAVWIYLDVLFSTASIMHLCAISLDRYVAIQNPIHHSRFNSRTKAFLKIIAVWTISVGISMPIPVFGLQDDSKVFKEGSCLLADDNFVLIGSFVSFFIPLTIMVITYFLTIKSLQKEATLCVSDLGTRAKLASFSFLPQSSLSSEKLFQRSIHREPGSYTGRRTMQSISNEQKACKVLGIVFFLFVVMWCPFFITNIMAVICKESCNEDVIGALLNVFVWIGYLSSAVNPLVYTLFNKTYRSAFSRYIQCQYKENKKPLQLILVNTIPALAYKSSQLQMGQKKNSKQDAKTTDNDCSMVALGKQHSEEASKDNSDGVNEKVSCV

## CN(C)CCc1c[nH]c2cccc(OC(=O)c3cccc(C(=O)Oc4cccc5[nH]cc(CCN(C)C)c45)c3)c12 [C(VII)]
5-HT1A receptor
  5-HT1A receptor modulation (reduction of cAMP levels): no significant receptor modulation
[1]
  Incidences of Head Twitch Response (HTR): Elevated incidences of HTR

## COC(=O)c1cccc(C(=O)Oc2cccc3[nH]cc(CCN(C)C)c23)c1 [C(XLIII)]
5-HT1A receptor
  5-HT1A receptor modulation (reduction of cAMP levels): receptor modulation at higher ligand concentrations

## NCCc1c[nH]c2ccc(O)cc12 [serotonin, reference compound]
5-HT1A receptor
  5-HT1A receptor modulation (reduction of cAMP levels): reduction in cAMP levels

## CN(C)CCc1c[nH]c2cccc(OC(=O)c3c(F)c(F)c(F)c(F)c3F)c12 [C(VI)]
5-HT1A receptor
  5-HT1A receptor modulation (reduction of cAMP levels): no receptor modulation at higher ligand concentrations
[1]
  Incidences of Head Twitch Response (HTR): Elevated incidences of HTR
[2]; mouse
  Detectability of administered compound in plasma, any animals at any dose: not detectable in any animals at any dose
[2]; [4]
  Plasma concentration of psilocin: BLQ (BLQ denotes below the lower limit of quantitation (0.2 ng/ml).)
[2]; [5]
  Plasma concentration of psilocin: BLQ (BLQ denotes below the lower limit of quantitation (0.2 ng/ml).)
[2]; [6]
  Plasma concentration of psilocin: BLQ (BLQ denotes below the lower limit of quantitation (0.2 ng/ml).); also recorded: No Peak
[2]; [7]
  Plasma concentration of psilocin: BLQ (BLQ denotes below the lower limit of quantitation (0.2 ng/ml).); also recorded: No Peak
[2]; [8]
  Plasma concentration of psilocin: BLQ (BLQ denotes below the lower limit of quantitation (0.2 ng/ml).)
GABAA; blocker (BL)
  IC50: > 100 µM
GABAA; opener (OP)
  EC50: > 100 µM

## CN(C)CCc1c[nH]c2cccc(O)c12 [psilocin, reference compound]
5-HT1A receptor
  5-HT1A receptor modulation (reduction of cAMP levels): reduction in cAMP levels
5-HT2A receptor
  Competition binding vs [3H]ketanserin at 5-HT2A (control outcome): binding

## COCCOCCOCC(=O)Oc1cccc2[nH]cc(CCN(C)C)c12 [C(III)]
5-HT1A receptor
  5-HT1A receptor modulation (reduction of cAMP levels): significant receptor modulation
[1]
  Incidences of Head Twitch Response (HTR): Elevated incidences of HTR

## N[C@@H](Cc1c[nH]c2ccccc12)C(=O)O [tryptophan, reference compound]
5-HT1A receptor
  5-HT1A receptor modulation (reduction of cAMP levels): no reduction in cellular cAMP levels
5-HT2A receptor
  Competition binding vs [3H]ketanserin at 5-HT2A (control outcome): no binding

## CN(C)CCc1c[nH]c2cccc(OC(=O)CC3CC3)c12 [C(IV)]
5-HT1A receptor
  5-HT1A receptor modulation (reduction of cAMP levels): significant receptor modulation
[1]
  Incidences of Head Twitch Response (HTR): Elevated incidences of HTR
[2]; 0.275 mg/kg oral C(IV), 24 h, animals M64-M66
  Plasma concentration of psilocin: No Peak
[2]; 0.789 mg/kg oral C(IV), 24 h, animals M67-M69
  Plasma concentration of psilocin: No Peak
[2]; mouse
  Detectability of administered compound in plasma, any animals at any dose: not detectable in any animals at any dose
[3]; C(IV) nominal 0.1 mg/mL, not accurate, peak below LLOQ, for reference only
  Psilocin, measured, in C(IV) residual dosing solution: 0.00174^d mg/mL
[3]; C(IV) nominal 0.2 mg/mL
  Psilocin, measured, in C(IV) residual dosing solution: 0.00324 mg/mL
[3]; C(IV) nominal 0.3 mg/mL
  Psilocin, measured, in C(IV) residual dosing solution: 0.00474 mg/mL
[3]; C(IV) nominal 1 mg/mL
  Psilocin, measured, in C(IV) residual dosing solution: 0.0234 mg/mL
[3]; PK dosing solutions
  Stability in dosing solutions: compound instability in dosing solutions
[3]; nominal 0.1 mg/mL
  C(IV), measured, residual dosing solution concentration: 0.0275 mg/mL
[3]; nominal 0.2 mg/mL
  C(IV), measured, residual dosing solution concentration: 0.0586 mg/mL
[3]; nominal 0.3 mg/mL
  C(IV), measured, residual dosing solution concentration: 0.0789 mg/mL
[3]; nominal 1 mg/mL
  C(IV), measured, residual dosing solution concentration: 0.252 mg/mL
GABAA; blocker (BL)
  IC50: > 100 µM
GABAA; opener (OP)
  EC50: > 100 µM

## COc1ccc(C(=O)Oc2cccc3[nH]cc(CCN(C)C)c23)cc1 [C(V)]
5-HT1A receptor
  5-HT1A receptor modulation (reduction of cAMP levels): mild receptor modulation at higher ligand concentrations
[1]
  Incidences of Head Twitch Response (HTR): Elevated incidences of HTR
[2]; mouse, 1 mg/kg i.v.
  Detectability of administered compound in plasma, i.v. administered animals: only detectable in i.v. administered animals
[2]; mouse, oral, any dose (1, 3, 10 mg/kg)
  Detectability of administered compound in plasma, orally administered animals: not detectable in orally administered animals at any dose
[2]; mouse, 1 mg/kg i.v., 5 min, individual animals, 1 mg/kg
  Plasma concentration of administered (parent) compound: 6.53 ng/mL and 53.8 ng/mL and 13.5 ng/mL
[2]; mouse, 1 mg/kg i.v., 5 min, mean ± SD
  Plasma concentration of administered (parent) compound: 24.6 ± 25.5 ng/mL
[2]; mouse, 1 mg/kg i.v., 0.25 h, individual animals, 1 mg/kg
  Plasma concentration of administered (parent) compound: BLQ (BLQ denotes below the lower limit of quantitation (0.5 ng/mL).)
[2]; mouse, 1 mg/kg i.v., 0.25 h, mean ± SD
  Plasma concentration of administered (parent) compound: 0.834 (n = 1) ng/mL
[2]; mouse, 1 mg/kg i.v., 0.5 h, individual animals, 1 mg/kg
  Plasma concentration of administered (parent) compound: BLQ (BLQ denotes below the lower limit of quantitation (0.5 ng/mL).); also recorded: No Peak
[2]; mouse, 1 mg/kg i.v., 1 h, individual animals
  Plasma concentration of administered (parent) compound: No Peak
[2]; mouse, 1 mg/kg i.v., 2 h, individual animals
  Plasma concentration of administered (parent) compound: No Peak
[2]; mouse, 1 mg/kg i.v., 4 h, individual animals
  Plasma concentration of administered (parent) compound: No Peak
[2]; mouse, 1 mg/kg i.v., 6 h, individual animals
  Plasma concentration of administered (parent) compound: No Peak
[2]; mouse, 1 mg/kg i.v., 8 h, individual animals
  Plasma concentration of administered (parent) compound: No Peak
[2]; mouse, 1 mg/kg i.v., individual animals, 1 mg/kg
  Cmax of administered (parent) compound: 6.53 ng/mL and 53.8 ng/mL and 13.5 ng/mL
[2]; mouse, 1 mg/kg i.v., mean ± SD
  Cmax of administered (parent) compound: 24.6 ± 25.5 ng/mL
[2]; [4]
  Plasma concentration of psilocin: BLQ (BLQ denotes below the lower limit of quantitation (0.2 ng/ml).)
[2]; [5]
  Plasma concentration of psilocin: BLQ (BLQ denotes below the lower limit of quantitation (0.2 ng/ml).)
[2]; [6]
  Plasma concentration of psilocin: No Peak; also recorded: BLQ (BLQ denotes below the lower limit of quantitation (0.2 ng/ml).)
[2]; [7]
  Plasma concentration of psilocin: No Peak; also recorded: BLQ (BLQ denotes below the lower limit of quantitation (0.2 ng/ml).)
[2]; [8]
  Plasma concentration of psilocin: BLQ (BLQ denotes below the lower limit of quantitation (0.2 ng/ml).); also recorded: No Peak
[2]; plasma, LC-MS bioanalysis of the mouse PK study
  Stability in plasma: unstable in plasma; also recorded: ^aA freshly spiked calibration curve was used for quantification C(V) is not stable in plasma; concentrations are not considered accurate; also recorded: ^aDue to C(V) instability in plasma, the PK parameter estimates are not considered accurate
GABAA; blocker (BL) mode
  IC50: > 100 µM
GABAA; opener (OP) mode
  EC50: > 100 µM

Reference: patent US12065404B2, “C4-carboxylic acid-substituted tryptamine derivatives and methods of using” (priority 2022, dated 2024)
